Test results taken from patent US20140335083A1, “METHODS OF TREATMENT AND PREVENTION OF EYE DISEASES” (GLAXO GROUP LIMITED, priority 2011, published 2014).

What was measured:
Type in all cases: in vivo
[1] = system: laser-induced CNV in C57BL/6 mice; experiment: Laser-induced CNV in C57/BL6 mice, fluorescein angiography
Procedure: Adult 12 weeks old female C57BL/6 mice were used to generate the laser-induced CNV model. Mice were anesthetized by intraperitoneal ketamine hydrochloride (25 mg/kg) and xylazine (10 mg/kg) and their pupils dilated by topical tropicamide 1%. Laser-photocoagulation was performed a diode laser (680 nm; 210 mW power, 100 ms duration, 100 […]) under direct vision using a hand-held cover slide as a contact lens and were localized to the 2, 10, and 6 o'clock positions of the posterior pole of the retina in both eyes. These laser settings consistently generate a subretinal gas bubble which strongly correlates with laser-induced rupture of Bruch's membrane and successful induction of CNV. Only lesions in which a bubble is formed were included in the analysis. Fluorescein angiography using a Kowa Genesis small animal fundus camera was conducted at 1 week and 2 weeks following induction of CNV. The size of CNV lesions were quantified by digital image analysis the mean area of hyperfluorescence per lesion during the early phase (90 seconds post fluorescein injection). The pupils were dilated by topical tropicamide 1% and fluorescein sodium 2% administered by intraperitoneal injection (0.2 ml). Eyes were excluded if there was significant cataract or keratopathy that could affect laser energy delivery or angiography.
Adult 12 weeks old female C57BL/6 mice were used to generate the laser-induced CNV (3 CNV lesions per mouse retina) model using laser photocoagulation and puncture of Bruch's membrane.
The statistical analysis conducted here is stringent in that number of observations are related to the number of animals treated whereas in most other studies (conducted in the wider literature) using this laser-induced model each lesion (3 CNV lesions per mouse retina) are regarded as independent observations. […] However it is clear that in the case of orally dosed pazopanib either statistical approach would have yielded a robust effect or as such the effect of CCR3 inhibitor '994 in this model appears weaker than orally dosed pazopanib.

[2] = system: spontaneous CNV in JR5558 mice; experiment: JR5558 spontaneous CNV model, quantitative immunohistochemistry (isolectin B4 whole-mount); conditions: 8 mg/kg BID v Vehicle, 12 days P14-P26
Procedure: JR5558 mice develop CNV (on an atrophic background) spontaneously with CNV lesions first emerging approximately 12 days after birth. JR5558 mice were intraperitoneally treated with various amounts of a rat anti-mouse VEGF receptor (VEGFR)-2 blocking antibody (MAB4431; R&D systems) or a purified rat non-immune isotype match control IgG2α antibody (R&D systems) starting from P14 for a total of 10 doses in 11 days and CNV development was analyzed by fluorescein angiography (FA) 24 hours after the last dose on P25. For Mice treated with CCR3 inhibitor '994 they were dosed intraperitoneally or by eye drop with various concentrations of the drug starting at P14 for a total of 12 days and CNV development was analyzed by FA 24 hours after the last dose on P26. To study the combination effects of anti-VEGFR2 antibody and CCR3 inhibitor '994, mice were treated intraperitoneally with each material alone or in combination starting from P14 for a total of 10 doses in 11 days and CNV development was analyzed by FA 24 hours after the last dose on P25. […]
When CCR3 inhibitor '994 was dosed BID instead of QD, CCR3 inhibitor '994 also produced a significant effect in limiting both total lesion (see, FIG. 4, Table 5) area and total CNV number (see, FIG. 4, Table 6). […] Eyes were completely washed and then analysed by quantitative immunohistochemistry.

[3] = system: retinal neovascularization in C57BL/6 mice; experiment: Oxygen-induced retinopathy, area of retinal neovascularization; conditions: hyperbaric oxygen
Procedure: C57BL/6 mice placed in 75% O2 at postnatal day (P) 7 and at P12 were returned to room air and treatment initiated with compound or vehicle. At P17, the area of retinal NV on the surface of the retina was measured as described previously (Shen et al., 2007). Briefly, P17 mice were given an intraocular injection of 1 μl of rat anti-mouse platelet endothelial cell adhesion molecule-1 (PECAM-1) antibody (Pharmingen, San Jose, Calif., USA); after 12 h, they were euthanized, and eyes were fixed in PBS-buffered formalin for 5 h at room temperature. Retinas were dissected, washed, and incubated with goat-anti rat polyclonal antibody conjugated with Alexa 488 (Invitrogen, Carlsbad, Calif., USA) at 1:500 dilution at room temperature for 45 min and flat mounted. An observer masked with respect to treatment group measured the area of NV per retina by image analysis.
(see, FIGS. 12 and 13). In systemic experiments both eyes were examined and no significant differences were observed between CCR3 inhibitor '994 and vehicle treated groups. In topical experiments no significant differences were noted between CCR3 inhibitor '994 and vehicle groups nor treated and fellow eye in the CCR3 inhibitor '994 treated group. […] Consequently SU4312 acts similarly on retinal neovascularization to that of an alternative receptor tyrosine kinase inhibitor pazopanib which was effective in limiting choroidal neovascularization.

[4] = Exposure after oral versus i.p. dosing in mice; conditions: mouse; oral v i.p.

reduction in exposure, oral dosing as compared to i.p dosing [4]: 5 fold
Compound: NC(=O)c1ccc(CNC(=O)NC[C@H]2CN(Cc3ccc(Cl)c(Cl)c3)CCO2)cc1 [CCR3 inhibitor '994, 4-[[[[[[(2s)-4-[(3,4-dichlorophenyl)methyl]-2-morpholinyl]methyl]-amino]carbonyl]-amino]methyl]benzamide]
Ratio of mean lesion sizes ([1]; Table 1 study, 8 mg/kg po QD v Vehicle, Week 1): 0.82
Ratio of mean lesion sizes ([1]; Table 1 study, 8 mg/kg po QD v Vehicle, Week 2): 0.99
Ratio of mean lesion sizes ([1]; Table 1 study, 30 mg/kg '994 v 20 mg/kg Pazopanib, Week 1): 1.47
Ratio of mean lesion sizes ([1]; Table 1 study, 30 mg/kg '994 v 20 mg/kg Pazopanib, Week 2): 2.03
Ratio of mean lesion sizes ([1]; Table 1 study, 30 mg/kg po QD v Vehicle, Week 1): 0.70
Ratio of mean lesion sizes ([1]; Table 1 study, 30 mg/kg po QD v Vehicle, Week 2): 0.78
Ratio of mean lesion sizes ([1]; Table 2 (second) study, 2 mg/kg po QD v Vehicle, Week 1): 0.93
Ratio of mean lesion sizes ([1]; Table 2 (second) study, 2 mg/kg po QD v Vehicle, Week 2): 0.83
Ratio of mean lesion sizes ([1]; Table 2 (second) study, 8 mg/kg BID po v Vehicle, Week 1): 0.80
Ratio of mean lesion sizes ([1]; Table 2 (second) study, 8 mg/kg BID po v Vehicle, Week 2): 0.65
Ratio of mean lesion sizes ([1]; Table 2 (second) study, 8 mg/kg po QD v Vehicle, Week 1): 0.81
Ratio of mean lesion sizes ([1]; Table 2 (second) study, 8 mg/kg po QD v Vehicle, Week 2): 0.66
Ratio of mean lesion sizes ([1]; Table 2 (second) study, 30 mg/kg '994 v 20 mg/kg Pazopanib, Week 1): 2.05
Ratio of mean lesion sizes ([1]; Table 2 (second) study, 30 mg/kg '994 v 20 mg/kg Pazopanib, Week 2): 2.16
Ratio of mean lesion sizes ([1]; Table 2 (second) study, 30 mg/kg po QD v Vehicle, Week 1): 0.62
Ratio of mean lesion sizes ([1]; Table 2 (second) study, 30 mg/kg po QD v Vehicle, Week 2): 0.56
Difference in mean number of CNV lesions per eye [2]: −8.00
Difference in mean total CNV area per eye [2]: −76632
effect on neovascularization of retinal vessels ([3]; systemic 8 mg/kg BID i.p.): did not have an effect
effect on neovascularization of retinal vessels ([3]; topically 5 ul 10 mg/ml BID): did not have an effect
